Test results from article PMC4506529 (Chemmedchem, 2014).

Experiments:
[1] = biological target: human C-terminal DNMT3A (a.a. 623-908) (Homo sapiens, UniProt Q9Y6K1); assay: DNMT3A restriction-based fluorescence enzyme inhibition assay; format: biochemical; settings: for inhibition at 10 µM / inhibition at 20 µM / inhibition at 32 µM: read-out: Inhibition [%] of DNMT3A catalytic activity; for Inhibition [%] of DNMT3A catalytic activity: mean±SEM where given, otherwise single determination
[2] = test system: luciferase reporter under control of methylated CMV promoter in KG-1 cells; assay: CMV-luc reexpression in KG-1 cells; format: cell-based, human; settings: 24 h; for Fold reactivation of luciferase (CMV-luc): vs untreated cells, mean±SEM
DNMT1 = settings: compared with SGI-1027; cited from earlier work
[3] = biological target: T1, histone lysine methyltransferases G9a (Homo sapiens, UniProt Q96KQ7); assay: G9A inhibition assay; format: biochemical
T1 sequence (Q96KQ7 1-1210): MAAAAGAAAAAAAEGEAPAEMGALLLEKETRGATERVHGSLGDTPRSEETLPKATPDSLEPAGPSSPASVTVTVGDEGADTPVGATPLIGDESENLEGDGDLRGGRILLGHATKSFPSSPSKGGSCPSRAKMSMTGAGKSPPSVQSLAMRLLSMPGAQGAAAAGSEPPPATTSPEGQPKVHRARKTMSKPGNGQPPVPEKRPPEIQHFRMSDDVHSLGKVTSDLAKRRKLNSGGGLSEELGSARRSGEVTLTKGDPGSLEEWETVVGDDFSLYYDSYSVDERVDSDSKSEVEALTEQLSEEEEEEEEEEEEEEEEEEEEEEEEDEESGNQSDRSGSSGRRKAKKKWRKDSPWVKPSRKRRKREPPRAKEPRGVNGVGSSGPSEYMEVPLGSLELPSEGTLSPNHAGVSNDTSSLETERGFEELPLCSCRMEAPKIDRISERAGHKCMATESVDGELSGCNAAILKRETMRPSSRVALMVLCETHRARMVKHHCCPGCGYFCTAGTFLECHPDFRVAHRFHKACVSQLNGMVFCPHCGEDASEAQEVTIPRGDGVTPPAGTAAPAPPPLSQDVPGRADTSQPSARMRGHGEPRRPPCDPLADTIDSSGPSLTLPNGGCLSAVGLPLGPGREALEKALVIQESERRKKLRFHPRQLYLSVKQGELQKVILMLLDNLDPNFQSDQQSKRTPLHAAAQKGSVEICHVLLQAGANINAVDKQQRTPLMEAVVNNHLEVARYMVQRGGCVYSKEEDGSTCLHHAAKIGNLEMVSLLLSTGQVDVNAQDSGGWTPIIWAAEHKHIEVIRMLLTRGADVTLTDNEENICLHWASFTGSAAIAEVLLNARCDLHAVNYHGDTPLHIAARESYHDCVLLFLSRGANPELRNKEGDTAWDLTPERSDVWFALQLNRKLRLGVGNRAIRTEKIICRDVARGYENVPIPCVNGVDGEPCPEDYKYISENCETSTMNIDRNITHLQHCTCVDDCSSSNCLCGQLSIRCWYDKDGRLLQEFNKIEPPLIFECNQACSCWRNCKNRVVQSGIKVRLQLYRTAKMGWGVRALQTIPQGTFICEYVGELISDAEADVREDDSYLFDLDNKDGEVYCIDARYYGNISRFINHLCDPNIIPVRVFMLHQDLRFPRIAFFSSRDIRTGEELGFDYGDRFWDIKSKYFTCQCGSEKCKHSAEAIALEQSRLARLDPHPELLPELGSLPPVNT

hDNMT1 = hDNMT1 (Homo sapiens, UniProt P26358); assay: DNMT1 [methyl-3H]SAM FlashPlate assay; format: biochemical
hDNMT1, sequence (P26358 whole entry): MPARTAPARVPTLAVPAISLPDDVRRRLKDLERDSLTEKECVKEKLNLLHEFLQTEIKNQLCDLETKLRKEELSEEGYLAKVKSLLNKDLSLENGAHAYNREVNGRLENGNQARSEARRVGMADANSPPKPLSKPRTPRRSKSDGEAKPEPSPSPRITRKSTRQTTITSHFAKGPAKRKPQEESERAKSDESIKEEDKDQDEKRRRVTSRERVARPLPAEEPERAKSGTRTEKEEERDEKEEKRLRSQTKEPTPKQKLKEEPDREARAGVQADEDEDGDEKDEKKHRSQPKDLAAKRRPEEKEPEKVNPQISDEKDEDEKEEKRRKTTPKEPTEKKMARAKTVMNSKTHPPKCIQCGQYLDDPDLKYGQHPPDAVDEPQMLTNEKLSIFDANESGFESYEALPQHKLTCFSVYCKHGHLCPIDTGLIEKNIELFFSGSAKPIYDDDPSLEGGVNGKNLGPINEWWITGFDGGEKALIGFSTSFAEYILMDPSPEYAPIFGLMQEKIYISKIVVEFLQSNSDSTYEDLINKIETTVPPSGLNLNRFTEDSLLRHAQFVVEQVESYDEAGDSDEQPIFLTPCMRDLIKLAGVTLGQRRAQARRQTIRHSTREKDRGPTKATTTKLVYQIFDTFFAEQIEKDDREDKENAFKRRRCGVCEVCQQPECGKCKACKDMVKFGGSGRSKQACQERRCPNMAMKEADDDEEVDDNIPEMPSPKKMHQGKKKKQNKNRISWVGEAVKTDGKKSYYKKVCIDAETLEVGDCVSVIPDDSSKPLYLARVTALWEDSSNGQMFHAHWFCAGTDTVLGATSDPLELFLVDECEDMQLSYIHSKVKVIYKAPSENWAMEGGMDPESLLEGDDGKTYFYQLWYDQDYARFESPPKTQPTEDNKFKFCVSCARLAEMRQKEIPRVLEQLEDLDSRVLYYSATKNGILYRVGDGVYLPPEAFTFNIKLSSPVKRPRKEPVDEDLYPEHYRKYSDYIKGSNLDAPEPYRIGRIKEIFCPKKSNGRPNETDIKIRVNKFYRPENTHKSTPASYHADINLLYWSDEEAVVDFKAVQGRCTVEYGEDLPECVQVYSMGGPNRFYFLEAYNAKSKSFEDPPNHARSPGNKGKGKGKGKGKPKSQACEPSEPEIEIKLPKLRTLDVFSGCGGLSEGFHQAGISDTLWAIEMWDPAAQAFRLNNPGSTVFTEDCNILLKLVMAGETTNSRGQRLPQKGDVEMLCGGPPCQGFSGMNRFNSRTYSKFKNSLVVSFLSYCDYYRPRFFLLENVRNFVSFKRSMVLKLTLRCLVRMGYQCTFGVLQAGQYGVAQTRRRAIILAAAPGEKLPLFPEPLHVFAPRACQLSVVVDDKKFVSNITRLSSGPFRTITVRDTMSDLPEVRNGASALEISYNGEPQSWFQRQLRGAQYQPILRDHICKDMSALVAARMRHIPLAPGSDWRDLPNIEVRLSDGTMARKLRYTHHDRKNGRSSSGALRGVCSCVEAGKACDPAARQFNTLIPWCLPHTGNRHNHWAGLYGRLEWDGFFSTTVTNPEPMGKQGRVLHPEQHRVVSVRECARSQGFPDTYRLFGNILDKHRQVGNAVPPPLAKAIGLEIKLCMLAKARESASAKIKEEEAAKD

human C-terminal DNMT3A (a.a. 623-908), sequence (Q9Y6K1 627-912): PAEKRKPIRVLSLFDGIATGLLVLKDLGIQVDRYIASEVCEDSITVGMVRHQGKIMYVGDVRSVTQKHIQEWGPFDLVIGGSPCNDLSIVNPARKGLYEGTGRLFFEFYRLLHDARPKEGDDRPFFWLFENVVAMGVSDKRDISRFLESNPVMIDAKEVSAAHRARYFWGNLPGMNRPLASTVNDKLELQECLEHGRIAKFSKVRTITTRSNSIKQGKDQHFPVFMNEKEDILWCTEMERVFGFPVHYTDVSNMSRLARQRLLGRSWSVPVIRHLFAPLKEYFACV

Molecule	inhibition at 10 µM [1] [%]	inhibition at 32 µM [1] [%]	also measured
CNc1ccc(C(=O)Nc2ccc(Nc3cc(C)nc(N)n3)cc2)cc1 [Compound 23, N-[4-(2-Amino-6-methylpyrimidin-4-ylamino)phenyl]-4-(methylamino)benzamide]	0		inhibition at 20 µM [1]: 0%
Cc1cc(Nc2ccc(NC(=O)c3ccc(Nc4ccncc4)cc3)cc2)nc(N)n1 [Compound 10, N-[4-(2-Amino-6-methylpyrimidin-4-ylamino)phenyl]-4-(pyridin-4-ylamino)benzamide]	32	91 ± 4	EC50 [1]: 13000 nM
Cc1cc(Nc2ccc(NC(=O)c3ccc([N+](=O)[O-])cc3)cc2)nc(N)n1 [Compound 8, N-[4-(2-Amino-6-methylpyrimidin-4-ylamino)phenyl]-4-nitrobenzamide]			inhibition at 20 µM [1]: 1%
N-[4-(2-Amino-6-methylpyrimidin-4-ylamino)-phenyl]-4-(pyridin-4-ylmethylamino)benzamide [Compound 25]			Inhibition [%] of DNMT3A catalytic activity ([1]; 10 μM compound): 0%; Inhibition [%] of DNMT3A catalytic activity ([1]; 32 μM compound): 4%
Cc1cc(Nc2ccc(NC(=O)c3ccc(Nc4ncccn4)cc3)cc2)nc(N)n1 [Compound 11, N-[4-(2-Amino-6-methylpyrimidin-4-ylamino)-phenyl]-4-(pyrimidin-2-ylamino)benzamide]	17	65 ± 3	
Cc1cc(Nc2ccc(NC(=O)c3ccc(Nc4ncnc5cc(F)ccc45)cc3)cc2)nc(N)n1 [Compound 15, N-[4-(2-Amino-6-methylpyrimidin-4-ylamino)phenyl]-4-(7-fluoroquinazolin-4-ylamino)benzamide]	19	6	
Cc1cc(Nc2ccc(NC(=O)c3ccc(Nc4ncnc5nc[nH]c45)cc3)cc2)nc(N)n1 [Compound 17, N-[4-(2-Amino-6-methylpyrimidin-4-ylamino)phenyl]-4-(7H-purin-6-ylamino)benzamide]	8		inhibition at 20 µM [1]: 3%
Cc1cc(Nc2ccc(NC(=O)c3ccc(Nc4cc(-c5ccccc5)nc5ccccc45)cc3)cc2)nc(N)n1 [Compound 16, N-[4-(2-Amino-6-methylpyrimidin-4-ylamino)phenyl]-4-(2-phenylquinolin-4-ylamino)benzamide]	81 ± 5	55 ± 10	EC50 [1]: 1600 nM; Fold reactivation of luciferase (CMV-luc) ([2]; 0.1 μM): 1.0±0.1 fold; Fold reactivation of luciferase (CMV-luc) ([2]; 1 μM): 1.3±0.1 fold; Fold reactivation of luciferase (CMV-luc) ([2]; 3.2 μM): 5.5±1.3 fold; Fold reactivation of luciferase (CMV-luc) ([2]; 5 μM): 6.0±2.0 fold; Fold reactivation of luciferase (CMV-luc) ([2]; 10 μM): 6.1±2.7 fold
COc1nc(Nc2ccc(C(=O)Nc3ccc(Nc4cc(C)nc(N)n4)cc3)cc2)nc(OC)n1 [Compound 13, N-[4-(2-Amino-6-methylpyrimidin-4-ylamino)phenyl]-4-(4,6-dimethoxy-1,3,5-triazin-2-ylamino)benzamide]	36	35	
Cc1cc(Nc2ccc(C(=O)Nc3ccc(Nc4ccnc5ccccc45)cc3)cc2)nc(N)n1 [Compound 30, N-[4-(Quinolin-4-ylamino)phenyl]-4-(2-amino-6-methylpyrimidin-4-ylamino)benzamide]	56 ± 11	47 ± 1	DNMT1 degradation (in words) (DNMT1): lower efficiency on DNMT1 degradation than SGI-1027
N-[4-(2-Amino-6-methylpyrimidin-4-ylamino)phenyl]-4-(pyridin-3-ylmethylamino)benzamide [Compound 24]			Inhibition [%] of DNMT3A catalytic activity ([1]; 10 μM compound): 0%
Cc1cc(Nc2ccc(NC(=O)c3ccc(N)cc3)cc2)nc(N)n1 [Compound 9, N-[4-(2-Amino-6-methylpyrimidin-4-ylamino)phenyl]-4-aminobenzamide]			inhibition at 20 µM [1]: 0%
Cc1cc(Nc2ccc(NC(=O)c3ccc(Nc4ncnc5ccccc45)cc3)cc2)nc(N)n1 [Compound 14, N-[4-(2-Amino-6-methylpyrimidin-4-ylamino)phenyl]-4-(quinazolin-4-ylamino)benzamide]	25	19	

Now from value to molecule, other results behind:

inhibition at 10 µM [1] [%]	inhibition at 32 µM [1] [%]	Molecule	also measured
48 ± 8	62 ± 22	O=C(Nc1ccc(Nc2c3ccccc3nc3ccccc23)cc1)c1ccc(Nc2c3ccccc3nc3ccccc23)cc1 [Compound 38, N-[4-(Acridin-9-ylamino)phenyl]-4-(acridin-9-ylamino)benzamide]	
39	29	O=C(Nc1ccc(Nc2ccnc3ccccc23)cc1)c1ccc(Nc2ccnc3ccccc23)cc1 [Compound 37, N-[4-(Quinolin-4-ylamino)phenyl]-4-(quinolin-4-ylamino)benzamide]	
74 ± 5	76 ± 5	Cc1cc(Nc2ccc(NC(=O)c3ccc(Nc4ccnc5ccccc45)cc3)cc2)nc(N)n1 [SGI-1027, N-(4-(2-amino-6-methylpyrimidin-4-ylamino)phenyl)-4-(quinolin-4-ylamino)benzamide, reference compound]	
29	46	O=C(Nc1ccc(Nc2ccnc3ccccc23)cc1)c1ccc(Nc2cc(-c3ccccc3)nc3ccccc23)cc1 [Compound 33, N-[4-(Quinolin-4-ylamino)phenyl]-4-(2-phenylquinolin-4-ylamino)benzamide]	
53 ± 8	53 ± 13	Nc1cc(Nc2ccc(C(=O)Nc3ccc(Nc4ccnc5ccccc45)cc3)cc2)nc(N)n1 [Compound 32, N-[4-(Quinolin-4-ylamino)phenyl]-4-(2,6-diaminopyrimidin-4-ylamino)benzamide]	plateau of DNMT3A inhibition ([1]; plateau between 32 and 1 μM, no dose–response curve (data not shown)): 50%
73 ± 3	75 ± 8	O=C(Nc1ccc(Nc2ccnc3ccccc23)cc1)c1ccc(Nc2ccncc2)cc1 [Compound 31, N-[4-(Quinolin-4-ylamino)phenyl]-4-(pyridin-4-ylamino)benzamide]	IC50 [3]: 28 ± 4 µM; EC50 [1]: 900 nM; efficacy of hDNMT3A inhibition ([1]; maximal efficacy of the dose–response curve): 90%; Fold reactivation of luciferase (CMV-luc) ([2]; 0.1 μM): 1.1±0.1 fold; Fold reactivation of luciferase (CMV-luc) ([2]; 0.32 μM): 1.3±0.2 fold; Fold reactivation of luciferase (CMV-luc) ([2]; 0.5 μM): 1.6±0.3 fold; Fold reactivation of luciferase (CMV-luc) ([2]; 1 μM): 2.0±0.2 fold; Fold reactivation of luciferase (CMV-luc) ([2]; 3.2 μM): 3.9±0.3 fold; Fold reactivation of luciferase (CMV-luc) ([2]; 5 μM): 3.9±0.1 fold; Fold reactivation of luciferase (CMV-luc) ([2]; 10 μM): 3.2±0.5 fold; concentration from which luciferase expression was reactivated [2]: ≥ 1 µM; EC50 (hDNMT1): 15 ± 3 µM
18	54 ± 5	O=C(Nc1ccc(Nc2ccncc2)cc1)c1ccc(Nc2ccncc2)cc1 [Compound 36, N-[4-(Pyridin-4-ylamino)phenyl]-4-(pyridin-4-ylamino)benzamide]	
